According to article PMC6877910, “Astrocyte-Targeted Transporter-Utilizing Derivatives of Ferulic Acid Can Have Multifunctional Effects Ameliorating Inflammation and Oxidative Stress in the Brain” (Oxidative Medicine and Cellular Longevity, 2019):

What was measured:
mTOR = experiment: Total amount of mTOR (ELISA) in cells; format: cell-based, mouse; settings: 48 h
Protocol: Enzyme-Linked Immunosorbent Assay (ELISA) kits were used (mTOR SimpleStep ELISA Kit and NFκB p65 Total SimpeStep ELISA Kit, Abcam, Cambridge, UK) to quantify mammalian (or mechanistic) target of rapamycin (mTOR) and transcription factor NF-κB amounts, respectively. […] The control wells were treated with the solvent only (0.5% DMSO). Cells were solubilized using the provided extraction buffer with the kit, incubated on ice for 20 minutes and centrifuged at 18 000 × g for 20 min at 4°C. The supernatants were stored at -80°C till the day of the analysis. Standards and samples were then analyzed following the manufacturer's protocol (ELISA sandwich method) and by reading the absorbance with the EnVision plate reader (EnVision, PerkinElmer, Inc., Waltham, MA, USA) at 450 nm. The results were analyzed as pmol of formed mTOR or NF-κB per mL.

[1] = test system: peroxidase activity of cyclooxygenases (COX); experiment: Peroxidase activity of cyclooxygenases in cell lysates (fluorometric kit); format: biochemical; settings: 100 μM; 30 min; assay does not differentiate COX from LOX
Protocol: A coupled oxidation-reduction fluorometric assay was used to assess the inhibitory effect of compounds (100 μM) together with positive controls on the peroxidase activity of cyclooxygenases (COX) (ab204699 Cyclooxygenase Activity Assay Kit, Abcam, Cambridge, UK). The method has been done and validated according to the manufacturer's protocol. Briefly, studied compounds (100 μM) and the reaction mixture were incubated with the cell lysates at room temperature and the reaction was initiated by adding arachidonic acid/NaOH solution. The fluorescence was read in a kinetic mode after every 15 seconds for 30 minutes by the EnVision plate reader (EnVision, PerkinElmer, Inc., Waltham, MA, USA) at λex 535 nm and λem 587 nm.

purified human BACE1 = target: T1, purified human BACE1 (Homo sapiens, UniProt P56817); experiment: BACE1 FRET inhibition assay (SensoLyte 520); format: biochemical; settings: 0.25 μM; 30 min
T1 construct: purchased AnaSpec, Inc., Fremont, CA, USA SensoLyte 520 BACE1 Assay kit (catalogue number not given)
Description: A fluorometric assay was used to screen the inhibitory effect of the studied compounds on purified human BACE1 using a fluorescence resonance energy transfer (FRET) peptide technique (SensoLyte© 520 BACE1 Assay kit, AnaSpec, Inc., Fremont, CA, USA) according to the manufacturer's protocol. […] The sequence of the FRET peptide has been derived from the β-secretase cleavage site of β-amyloid precursor protein (APP) with Swedish mutation, which enhances β-secretase to process APP resulting in an early onset of AD. Thus, active β-secretase cleaved FRET substrate into two separate fragments resulting in the release of HiLyte™ Fluor 488 fluorescence that was measured by the EnVision plate reader (EnVision, PerkinElmer, Inc., Waltham, MA, USA) at λex 490 nm and λem 520 nm. […] The results were reported as percentages (%), with control sample representing 100% β-secretase activity.

T1 sequence (P56817 46-501): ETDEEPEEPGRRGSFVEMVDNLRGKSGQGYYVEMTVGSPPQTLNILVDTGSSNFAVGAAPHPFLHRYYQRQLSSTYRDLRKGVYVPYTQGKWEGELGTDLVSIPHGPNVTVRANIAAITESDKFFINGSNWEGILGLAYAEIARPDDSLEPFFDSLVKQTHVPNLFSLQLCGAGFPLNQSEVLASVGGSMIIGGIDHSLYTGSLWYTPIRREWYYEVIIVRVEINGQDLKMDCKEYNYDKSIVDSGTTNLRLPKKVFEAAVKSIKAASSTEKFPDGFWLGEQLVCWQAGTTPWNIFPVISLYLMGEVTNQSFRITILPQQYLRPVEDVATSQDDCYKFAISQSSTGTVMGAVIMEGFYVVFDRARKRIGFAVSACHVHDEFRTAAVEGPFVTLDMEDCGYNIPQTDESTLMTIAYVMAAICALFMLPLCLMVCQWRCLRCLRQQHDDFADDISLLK

## NCC1(CC(=O)O)CCCCC1 [gabapentin]
mTOR; 100 μM
  Reduction of total amount of mTOR: 46-49%

## O=C(O)Cc1ccccc1Nc1c(Cl)cccc1Cl [DCF, diclofenac]
[1]
  Inhibition of peroxidase activity of COX enzymes: 18%

## CN(C)C(=N)N=C(N)N [metformin]
mTOR; 100 μM
  Reduction of total amount of mTOR: did not affect

## CO[C@H]1C[C@@H]2CC[C@@H](C)[C@@](O)(O2)C(=O)C(=O)N2CCCC[C@H]2C(=O)O[C@H]([C@H](C)C[C@@H]2CC[C@@H](O)[C@H](OC)C2)CC(=O)[C@H](C)/C=C(\C)[C@@H](O)[C@@H](OC)C(=O)[C@H](C)C[C@H](C)/C=C/C=C/C=C/1C [rapamycin]
mTOR; 1 μM
  Reduction of total amount of mTOR: 46-49%

## KTEEISEVN-Sta-VAEF-NH2 [reference compound]
Purified human BACE1
  BACE1 inhibition: ca. 85%
